In US11249100B2, “Modular robotic systems for delivering fluid to microfluidic devices” (Worcester Polytechnic Institute, priority 2018, dated 2022):
“Also recorded” adds a separate entry of the source.

How the values were obtained:
AWA chemosensory neurons [1] = assay: Automated solvent screen: optogenetically (Chrimson) evoked GCaMP calcium responses in living nematodes; type: in vivo, C. elegans; details: for effect on peak fluorescent responses to Chrimson-induced activation: <1 min exposure, compared to prior buffer control, 20 young adult animals; for persistence of suppression after returning to buffer fluid: alternating buffer control wells after solvent wells
Protocol: The C. elegans strain NZ1091 was integrated by irradiation and backcrossed at least 10×. Animals were grown and maintained at 20° C. on NGM plates with OP50 E. coli bacteria. At least 12 hrs prior to experimentation, L4 stage C. elegans were picked and transferred to 50 μM All Trans Retinal (ATR) in OP50 E. coli spotted onto an unseeded NGM plate. For the dose response experiment, C. elegans were selected as L4s the day before and tested as young adults the next day.
All solvents were prepared in Eppendorf tubes at 1% and 5% v/v concentrations to 1 mL in paralysis buffer (S. Basal buffer without cholesterol containing the acetylcholine agonist 1 mM (−)-tetramisole hydrochloride) and vortexed to mix for 30 s-1 min. Solvent dilutions were transferred to a 96 deep well plate (700µL/well). Alternating control wells were filled with 100 ng/mL fluorescein in paralysis buffer to visualize alternating solution delivery. Animals were exposed to paralysis buffer flow for ˜1-2 hrs prior to solvent delivery to keep animals stationary during recording. The 96 well plate was loaded with solvent solutions by hand the hour before recording and sealed with adhesive film (Glad® Press-n-Seal).
Methods followed those described previously. About 20-30 animals co-expressing GCaMP and Chrimson in the AWA chemosensory neuron pair were loaded into a modified high-throughput microfluidic imaging device optimized for 4× magnification with only the inlet, back pressure, worm loading, and outlet port(s) punched. Optical configurations were customized using an ASI RAMM frame and commercially available components for low-magnification wide-filed GCaMP excitation (4×/0.28 NA), compatible with Chrimson excitation, and high-resolution (1024×1024) 10 fps image acquisition. In addition to the optical set up described above, a 617 nm Mightex LED was mounted beneath the RAMM stage with an additional cube housing a 590 LP excitation dichroic to pass uniform Chrimson activation across the entire field of view. At each inlet well position, animals were exposed to solution for <1 min total, during which a 30 s delay was programmed to sufficiently fill the tubing after each well transfer for serially delivered solutions. Then, an immediate acquisition of 15 s (10 frames/s, 10 ms blue light pulse, 10 ms delay, 2×2 binning) began with a 617 nm light presence for 5 s (from 2.5 s to 7.5 s). Custom scripts were used for quantifying neuron fluorescence (Neurotracker ImageJ macro) and MATLAB17a for data analysis and visualization.
The robotic system was used to screen 14 different solvents at two concentrations (1% and 5%) for their effects on optogenetically-evoked neural responses. Solvent dilutions were prepared in a 96-well plate alternating with buffer control wells (FIG. 8A). A previously established high-throughput imaging device was used to record calcium signals from individual neurons of 20-25 young adult animals (FIG. 8B). Animals co-expressed the red-shifted channelrhodopsin (Chrimson) and the genetically encoded calcium sensor (GCaMP2.2b) in the AWA chemosensory neurons (FIG. 8C), allowing simultaneous optical stimulation and monitoring of neural responses.

ASER chemosensory neuron = details: ASER::GCaMP; downshift from base 40 mM NaCl; triplicate pulses
Protocol: Salt solutions (0-40 mM) were prepared by diluting S. Basal buffer (100 mM NaCl) with an iso-osmotic buffer of 186 mM glycerol.
Either the input stimulus (in, fluorescein for visualization) or buffer can bathe the animals depending on which control channel flows (c1 for input, c2 for buffer). […] Triplicate pulses (10 s) are delivered once per minute at a given concentration, followed by an increase in concentration with a delay of ˜45 s.
Animals expressing GCaMP in the ASER chemosensory neuron, which responds to salt downshifts, were stimulated with triplicate repeat pulses of NaCl, decreasing from a base 40 mM NaCl to a variable level from 40 mM (0 change) to 0 mM (−40 mM change).

AWA chemosensory neurons [2] = assay: Automated diacetyl odor dose response, GCaMP calcium imaging; type: in vivo, C. elegans
[3] = 1% v/v solvent in paralysis buffer
[4] = 5% v/v solvent in paralysis buffer

Row | Compound | effect on peak fluorescent responses to Chrimson-induced activation (AWA chemosensory neurons [1]; [3]) | effect on peak fluorescent responses to Chrimson-induced activation (AWA chemosensory neurons [1]; [4]) | persistence of suppression after returning to buffer fluid (AWA chemosensory neurons [1]) | other results
1 | CN(C)C=O [DMF] | weaker suppressive effects | – | – | –
2 | C[S+](C)[O-] [DMSO] | variable and weakly suppressed responses; also recorded: weaker suppressive effects | – | – | –
3 | [Cl-].[Na+] [NaCl] | – | – | – | NaCl shift giving a minimal but robust response in ASE (ASER chemosensory neuron): shift from 40 mM to 35 mM
4 | CC(C)=O [acetone] | – | weaker suppressive effects | – | –
5 | CC#N [acetonitrile] | – | significantly suppressed; also recorded: most significant suppressive effects | transient | –
6 | CC(=O)C(C)=O [diacetyl] | – | – | – | diacetyl concentration giving a minimal but robust odor response in AWA (AWA chemosensory neurons [2]; AWA::GCaMP young adults, triplicate odor pulses once per minute): 0.1 µM; odor-evoked neural responses versus concentration (AWA chemosensory neurons [2]; AWA::GCaMP, diacetyl from 0.1 μM to 1 mM): strengthened with increasing odor concentration
7 | CCO [ethanol] | – | variable and weakly suppressed responses; also recorded: most significant suppressive effects | – | –
8 | CC(C)O [isopropanol] | significantly suppressed | significantly suppressed; also recorded: most significant suppressive effects | transient | effect on optogenetically-evoked neural responses (AWA chemosensory neurons [1]; solvents at 1% and 5%, concentration not separated): suppression of optogenetic stimulation
9 | CO [methanol] | significantly suppressed | significantly suppressed; also recorded: most significant suppressive effects | transient | –
